Assay [1] concerns endotoxin (LPS) induced rise in plasma nitrites. The assay is described as follows: In Vivo Assay: plasma nitrites after endotoxin (Low Dose LPS). Also on record: species or system Rats. Conditions: plasma nitrites 5 hours post-treatment. As for the experimental part: Rats were treated with an intraperitoneal injection of 10 mg/kg of endotoxin (LPS) with or without oral administration of the nitric oxide synthase inhibitors.

Assay [2] has as its target hecNOS (Homo sapiens, UniProt P29474). In words: Citrulline Assay for Nitric Oxide Synthase, Human in vitro Enzyme Data, hecNOS. Format: biochemical.
Assay [3] addresses hiNOS (Homo sapiens, UniProt P35228). The assay is described as follows: Citrulline Assay for Nitric Oxide Synthase, Human in vitro Enzyme Data, hiNOS. It counts as biochemical.
Assay [4] addresses hnaNOS (Homo sapiens, UniProt P29475). In words: Citrulline Assay for Nitric Oxide Synthase, Human in vitro Enzyme Data, hnaNOS. Format: biochemical.

Structures can show the parent of a compound that is named as a salt.

A word on the IC50: it is the concentration that gives 50% inhibition. High values mean lower potency, low ones higher potency. On to `Cc1noc(=O)n1CCCC[C@H](N)C(=O)O` [Example 2, αS-amino-4,5-dihydro-3-methyl-5-oxo-1,2,4-oxadiazole-4-hexanoic acid, monohydrochloride], for which the “Low Dose LPS in vivo Effective Dose (i.v.), inh.” value in assay [1] (i.v., 3 mg/kg/day) was determined as 83%. The “Low Dose LPS in vivo Effective Dose (p.o.), inh.” value was determined as 39% in assay [1] (3 mg/kg/day) and 42% in assay [1] (10 mg/kg/day). In addition, the IC50 in assay [2] was found to be 1140 µM; in assay [3], 138 µM; in assay [4] it was 159 µM.

Source of the values: patent US5981556A, “1,3-diazolino and 1,3-diazolidino heterocycles as useful nitric oxide synthase inhibitors” (G.D. Searle & Co., priority 1997, dated 1999).
